Laboratory results as given in article PMC6139576 (Journal of Medicinal Chemistry, 2018).

What was measured:
rat EAAT4 (rEAAT4) = target: T1, rat EAAT4 (rEAAT4) (Rattus norvegicus, UniProt O35921); test: [3H]-D-Asp uptake assay, rEAAT4-tsA201 cells; format: cell-based
T1 sequence (O35921 1-561): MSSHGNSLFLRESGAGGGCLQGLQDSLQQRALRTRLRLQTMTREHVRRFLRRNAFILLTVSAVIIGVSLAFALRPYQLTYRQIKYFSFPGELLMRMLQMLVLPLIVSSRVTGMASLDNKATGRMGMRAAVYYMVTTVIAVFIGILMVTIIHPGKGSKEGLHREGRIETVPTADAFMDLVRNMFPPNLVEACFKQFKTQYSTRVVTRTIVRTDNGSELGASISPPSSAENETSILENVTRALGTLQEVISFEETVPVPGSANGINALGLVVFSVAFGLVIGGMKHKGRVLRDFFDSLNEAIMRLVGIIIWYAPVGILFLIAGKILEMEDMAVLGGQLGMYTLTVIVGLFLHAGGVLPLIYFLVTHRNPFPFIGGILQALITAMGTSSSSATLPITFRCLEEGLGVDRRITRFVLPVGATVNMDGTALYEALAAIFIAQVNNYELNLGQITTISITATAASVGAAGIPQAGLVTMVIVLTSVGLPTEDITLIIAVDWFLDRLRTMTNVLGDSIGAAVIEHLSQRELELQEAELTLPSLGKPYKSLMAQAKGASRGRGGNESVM

human EAAT2 (hEAAT2) = human EAAT2 (hEAAT2) (Homo sapiens, UniProt P43004); test: [3H]-D-Asp uptake assay, hEAAT2-HEK293 cells; format: cell-based
human EAAT1 (hEAAT1) = human EAAT1 (hEAAT1) (Homo sapiens, UniProt P43003); test: [3H]-D-Asp uptake assay, hEAAT1-HEK293 cells; format: cell-based
human EAAT3 (hEAAT3) = target: T2, human EAAT3 (hEAAT3) (Homo sapiens, UniProt P43005); test: [3H]-D-Asp uptake assay, hEAAT3-HEK293 cells; format: cell-based; conditions: hEAAT3 pIC50 ± S.E.M.
T2 sequence (P43005 1-524): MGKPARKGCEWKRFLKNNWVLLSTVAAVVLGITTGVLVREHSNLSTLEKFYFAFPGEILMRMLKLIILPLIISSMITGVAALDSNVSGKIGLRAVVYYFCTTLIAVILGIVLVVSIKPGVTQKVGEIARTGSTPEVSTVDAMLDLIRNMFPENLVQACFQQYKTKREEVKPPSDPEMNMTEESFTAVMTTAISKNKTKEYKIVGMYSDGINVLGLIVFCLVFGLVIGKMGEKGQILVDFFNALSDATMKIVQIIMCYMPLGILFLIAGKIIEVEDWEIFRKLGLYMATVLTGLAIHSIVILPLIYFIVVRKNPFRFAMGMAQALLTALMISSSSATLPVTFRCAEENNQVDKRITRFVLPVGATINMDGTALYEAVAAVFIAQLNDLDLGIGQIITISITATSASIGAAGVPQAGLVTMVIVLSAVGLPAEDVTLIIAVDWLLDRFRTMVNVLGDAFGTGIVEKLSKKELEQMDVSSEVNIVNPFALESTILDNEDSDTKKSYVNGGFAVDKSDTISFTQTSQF

EAAT3 = conditions: cited from earlier work

human EAAT2 (hEAAT2), sequence (P43004 whole entry, the tested form may be a part): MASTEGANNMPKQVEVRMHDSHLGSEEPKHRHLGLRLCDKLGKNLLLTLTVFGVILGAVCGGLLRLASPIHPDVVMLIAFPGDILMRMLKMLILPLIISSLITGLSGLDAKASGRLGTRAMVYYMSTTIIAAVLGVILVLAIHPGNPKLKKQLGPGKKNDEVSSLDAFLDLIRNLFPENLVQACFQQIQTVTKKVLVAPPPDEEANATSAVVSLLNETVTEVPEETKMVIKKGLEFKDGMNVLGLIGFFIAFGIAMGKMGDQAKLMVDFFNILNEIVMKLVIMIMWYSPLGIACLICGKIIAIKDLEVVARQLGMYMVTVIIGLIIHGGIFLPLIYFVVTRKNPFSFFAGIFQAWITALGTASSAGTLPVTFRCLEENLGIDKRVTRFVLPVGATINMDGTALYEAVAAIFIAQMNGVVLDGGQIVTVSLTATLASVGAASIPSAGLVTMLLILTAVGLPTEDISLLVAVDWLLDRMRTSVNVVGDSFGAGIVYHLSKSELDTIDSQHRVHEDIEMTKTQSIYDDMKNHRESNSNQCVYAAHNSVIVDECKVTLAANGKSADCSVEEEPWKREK
human EAAT1 (hEAAT1), sequence (P43003 whole entry, the tested form may be a part): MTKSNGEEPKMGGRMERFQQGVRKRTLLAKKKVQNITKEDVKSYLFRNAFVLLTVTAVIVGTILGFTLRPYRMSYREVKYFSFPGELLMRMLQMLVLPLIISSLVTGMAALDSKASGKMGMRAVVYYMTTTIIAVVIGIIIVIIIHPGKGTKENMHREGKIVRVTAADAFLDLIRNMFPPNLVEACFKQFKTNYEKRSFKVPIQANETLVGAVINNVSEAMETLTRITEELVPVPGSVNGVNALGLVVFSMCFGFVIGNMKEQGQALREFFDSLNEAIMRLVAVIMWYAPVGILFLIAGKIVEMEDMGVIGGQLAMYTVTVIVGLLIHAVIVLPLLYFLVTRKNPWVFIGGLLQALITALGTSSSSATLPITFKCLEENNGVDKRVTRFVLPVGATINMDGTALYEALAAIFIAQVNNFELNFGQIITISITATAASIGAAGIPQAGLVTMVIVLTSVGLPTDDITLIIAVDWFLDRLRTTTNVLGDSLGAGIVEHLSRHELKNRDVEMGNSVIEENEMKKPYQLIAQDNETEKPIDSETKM

Q: Which IC50 (rat EAAT4 (rEAAT4)) does the source give for `C#CCO[C@H](C(=O)O)[C@@H](N)C(=O)O` (racemic) [DL-erythro-19c, (DL-erythro)-3-(Prop-2-yn-1-yloxy)aspartate] here?
A: ~100 µM

Q: And the IC50 (human EAAT2 (hEAAT2); hEAAT2 IC50, [3H]-D-Asp uptake, HEK293 cells)?
A: 82 µM

Q: And the IC50 (human EAAT1 (hEAAT1); hEAAT1 IC50, [3H]-D-Asp uptake, HEK293 cells)?
A: 99 µM

Q: And the IC50 (human EAAT3 (hEAAT3))?
A: 28.2 µM

Q: For `N[C@H](C(=O)O)[C@H](OCC1CC1)C(=O)O` (racemic) [DL-threo-19a, (DL-threo)-3-(Cyclopropylmethoxy)aspartate], which IC50 (rat EAAT4 (rEAAT4)) is on record?
A: 15.8 µM

Q: What about the IC50 (human EAAT3 (hEAAT3)) of the same compound?
A: 3.72 µM

Q: With `N[C@H](C(=O)O)[C@H](OCc1ccsc1)C(=O)O` (racemic) [DL-threo-19b, (DL-threo)-3-(Thiophen-3-ylmethoxy)aspartate] as the compound, how does the IC50 (rat EAAT4 (rEAAT4)) read?
A: 4.27 µM

Q: Which “fold increased IC50 at rEAAT4 relative to L-TFB-TBOA” value (rat EAAT4 (rEAAT4); versus L-TFB-TBOA (3a)) does the source give for `N[C@H](C(=O)O)[C@H](OCc1cccc(NC(=O)Cc2ccc(C(F)(F)F)cc2)c1)C(=O)O` [3d] here?
A: 5–10 fold

Q: What about the “fold increased IC50 at hEAAT2 relative to L-TFB-TBOA” value (human EAAT2 (hEAAT2); versus L-TFB-TBOA (3a)) of the same compound?
A: 5–10 fold

Q: What about the “fold increased IC50 at hEAAT1 relative to L-TFB-TBOA” value (human EAAT1 (hEAAT1); versus L-TFB-TBOA (3a)) of the same compound?
A: 5–10 fold

Q: Which “preference as an inhibitor for EAAT3 over EAAT1 and EAAT2” value (EAAT3) does the source give for `N[C@H](C(=O)O)[C@H](Cc1ccccc1)C(=O)O` [compound 4, L-threo-3-benzylaspartate] here?
A: 10 fold
